# Assay results from patent US20260184691A1, “INHIBITORS AND DEGRADERS OF PIP4K PROTEIN” (Larkspur Biosciences, Inc., priority 2022, published 2026).
# Target: T1, endogenous PIP4K2C C-terminally tagged with HiBiT peptide in MOLT-4 cells (Homo sapiens, UniProt Q8TBX8)
# T1 construct: to C-terminally tag endogenous PIP4K2C with HiBiT peptide; host or cells: MOLT-4 (CRISPR-Cas9 knock-in clone)
# T1 sequence (Q8TBX8 1-421): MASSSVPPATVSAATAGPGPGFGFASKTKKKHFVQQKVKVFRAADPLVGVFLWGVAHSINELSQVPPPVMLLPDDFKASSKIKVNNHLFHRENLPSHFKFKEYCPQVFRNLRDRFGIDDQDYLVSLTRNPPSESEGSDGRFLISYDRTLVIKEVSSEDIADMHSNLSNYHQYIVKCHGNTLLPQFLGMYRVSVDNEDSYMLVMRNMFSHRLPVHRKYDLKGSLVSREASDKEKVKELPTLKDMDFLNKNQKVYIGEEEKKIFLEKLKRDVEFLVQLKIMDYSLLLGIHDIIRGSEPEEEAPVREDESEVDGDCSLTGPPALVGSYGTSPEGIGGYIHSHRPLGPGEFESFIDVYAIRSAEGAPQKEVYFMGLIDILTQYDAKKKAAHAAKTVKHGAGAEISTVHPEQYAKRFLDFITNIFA
# Assay: HiBiT PIP4K2C degradation assay in MOLT-4 cells
# Format: cell-based
# Settings: 24 hours, 10-point dose response, top concentration 10 micromolar, read-out: HiBIT-degradation MOLT4 PIP4k2C 24 hours DC50
# Outline: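 Cells bearing C-terminal HiBiT knock-in were exposed to a 10-point, 3-fold dilution series (top 10 micromolar, duplicate) for 24 h at 37C, 5% CO2. Remaining tagged protein read by lytic HiBiT luminescence; DC50 from Hill-equation fit.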
row,SMILES,DC50
1,"O=C(CCOc1cccc2c1C(=O)N(C1CCC(=O)NC1=O)C2=O)NCCCCCCCCC(=O)Nc1cncc(Nc2ncc(Cl)c(-c3cccc(-c4ccccc4)c3)n2)c1 (stereo not shown) [Compound 89, N-(5-((4-([1,1′-biphenyl]-3-yl)-5-chloropyrimidin-2-yl)amino)pyridin-3-yl)-9-(3-((2-(2,6-dioxopiperidin-3-yl)-1,3-dioxoisoindolin-4-yl)oxy)propanamido)nonanamide]",< 500 nM
2,"O=C1CCC(Nc2ccc(C3CCN(CC(=O)N4CCC5(CC4)CCN(c4cncc(Nc6ncc(Cl)c(N7CCC[C@@H](C(F)(F)F)C7)n6)c4)C5=O)CC3)cc2)C(=O)N1 (stereo partly drawn) [Compound 171, 3-((4-(1-(2-(2-(5-((5-chloro-4-((R)-3-(trifluoromethyl)piperidin-1-yl)pyrimidin-2-yl)amino)pyridin-3-yl)-1-oxo-2,8-diazaspiro[4.5]decan-8-yl)-2-oxoethyl)piperidin-4-yl)phenyl)amino)piperidine-2,6-dione]",< 500 nM
3,"O=C1CCC(N2C(=O)c3cccc(OCCCN4CCN(CCCCC(=O)Nc5cncc(Nc6ncc(Cl)c(-c7cccc(-c8ccccc8)c7)n6)c5)CC4)c3C2=O)C(=O)N1 (stereo not shown) [Compound 65, N-(5-((4-([1,1′-biphenyl]-3-yl)-5-chloropyrimidin-2-yl)amino)pyridin-3-yl)-5-(4-(3-((2-(2,6-dioxopiperidin-3-yl)-1,3-dioxoisoindolin-4-yl)oxy)propyl)piperazin-1-yl)pentanamide]",< 500 nM
4,"O=C1CCC(Nc2ccc(N3CCC(O)(CC(=O)N4CCC5(CC4)CCN(c4cncc(Nc6ncc(Cl)c(-c7cccc(-c8ccccc8)c7)n6)c4)C5=O)CC3)cc2)C(=O)N1 (stereo not shown) [Compound 180, 3-[4-[4-[2-[2-[5-[[5-chloro-4-(3-phenylphenyl)pyrimidin-2-yl]amino]-3-pyridyl]-1-oxo-2,8-diazaspiro[4.5]decan-8-yl]-2-oxo-ethyl]-4-hydroxy-1-piperidyl]anilino]piperidine-2,6-dione]",< 500 nM
5,"CN1CCC(n2cc(-c3nc(Nc4cncc(N5CCC6(CCN(C(=O)CN7CCC(c8ccc(NC9CCC(=O)NC9=O)cc8)CC7)CC6)C5=O)c4)ncc3Cl)cn2)CC1 (stereo not shown) [Compound 194, 3-((4-(1-(2-(2-(5-((5-chloro-4-(1-(1-methylpiperidin-4-yl)-1H-pyrazol-4-yl)pyrimidin-2-yl)amino)pyridin-3-yl)-1-oxo-2,8-diazaspiro[4.5]decan-8-yl)-2-oxoethyl)piperidin-4-yl)phenyl)amino)piperidine-2,6-dione]",< 500 nM
6,"O=C1CCC(Nc2ccc(C3CCN(C(=O)CN4CCC(C(=O)Nc5cncc(Nc6ncc(Cl)c(-c7cccc(C8CC8)c7)n6)c5)CC4)CC3)cc2)C(=O)N1 (stereo not shown) [Compound 202, N-(5-((5-chloro-4-(3-cyclopropylphenyl)pyrimidin-2-yl)amino)pyridin-3-yl)-1-(2-(4-(4-((2,6-dioxopiperidin-3-yl)amino)phenyl)piperidin-1-yl)-2-oxoethyl)piperidine-4-carboxamide]",< 500 nM
7,"O=C1CCC(Nc2ccc(N3CCC(N4CCC5(CCN(c6cncc(Nc7ncc(Cl)c(N8CCCCC8)n7)c6)C5=O)CC4)CC3)cc2)C(=O)N1 (stereo not shown) [Compound 91, 3-((4-(4-(2-(5-((5-chloro-4-(piperidin-1-yl)pyrimidin-2-yl)amino)pyridin-3-yl)-1-oxo-2,8-diazaspiro[4.5]decan-8-yl)piperidin-1-yl)phenyl)amino)piperidine-2,6-dione]",1000 to 5000 nM
8,"O=C1CCC(N2Cc3cc(NCCCCCC(=O)N4CCC5(CC4)CCN(c4cncc(Nc6ncc(Cl)c(-c7cccc(-c8ccccc8)c7)n6)c4)C5=O)ccc3C2=O)C(=O)N1 (stereo not shown) [Compound 82, 3-(5-((6-(2-(5-((4-([1,1′-biphenyl]-3-yl)-5-chloropyrimidin-2-yl)amino)pyridin-3-yl)-1-oxo-2,8-diazaspiro[4.5]decan-8-yl)-6-oxohexyl)amino)-1-oxoisoindolin-2-yl)piperidine-2,6-dione]",< 500 nM
9,"O=C1CCC(Nc2ccc(C3CCN(CC(=O)N4CCC5(CC4)CCN(c4cncc(Nc6ncc(Cl)c(N7CCOC(c8ccccc8)C7)n6)c4)C5=O)CC3)cc2)C(=O)N1 (stereo not shown) [Compound 186, 3-[4-[1-[2-[2-[5-[[5-chloro-4-(2-phenylmorpholin-4-yl)pyrimidin-2-yl]amino]-3-pyridyl]-1-oxo-2,8-diazaspiro[4.5]decan-8-yl]-2-oxo-ethyl]-4-piperidyl]anilino]piperidine-2,6-dione]",< 500 nM
10,"Cn1c(=O)n(C2CCC(=O)NC2=O)c2ccc(C3CCN(C(=O)CN4CCC(C(=O)Nc5cncc(Nc6ncc(Cl)c(-c7cccc(C8CC8)c7)n6)c5)CC4)CC3)cc21 (stereo not shown) [Compound 204, N-(5-((5-chloro-4-(3-cyclopropylphenyl)pyrimidin-2-yl)amino)pyridin-3-yl)-1-(2-(4-(1-(2,6-dioxopiperidin-3-yl)-3-methyl-2-oxo-2,3-dihydro-1H-benzo[d]imidazol-5-yl)piperidin-1-yl)-2-oxoethyl)piperidine-4-carboxamide]",< 500 nM
11,"O=C1CCC(Nc2ccc(C3CCN(CC(=O)N4CCC5(CC4)CCN(c4cncc(Nc6ncc(Cl)c(-c7cccc(C8CCCC8)c7)n6)c4)C5=O)CC3)cc2)C(=O)N1 (stereo not shown) [Compound 192, 3-((4-(1-(2-(2-(5-((5-chloro-4-(3-cyclopentylphenyl)pyrimidin-2-yl)amino)pyridin-3-yl)-1-oxo-2,8-diazaspiro[4.5]decan-8-yl)-2-oxoethyl)piperidin-4-yl)phenyl)amino)piperidine-2,6-dione]",< 500 nM
12,"O=C(CCCOc1cccc2c1C(=O)N(C1CCC(=O)NC1=O)C2=O)NCCCCCCCC(=O)Nc1cncc(Nc2ncc(Cl)c(-c3cccc(-c4ccccc4)c3)n2)c1 (stereo not shown) [Compound 81, N-(5-((4-([1,1′-biphenyl]-3-yl)-5-chloropyrimidin-2-yl)amino)pyridin-3-yl)-8-(4-((2-(2,6-dioxopiperidin-3-yl)-1,3-dioxoisoindolin-4-yl)oxy)butanamido)octanamide]",< 500 nM
13,"CN1CCC(n2cc(-c3nc(Nc4cncc(N5CCC6(CCN(C(=O)CC7CCN(c8ccc(NC9CCC(=O)NC9=O)cc8)CC7)CC6)C5=O)c4)ncc3Cl)cn2)CC1 (stereo not shown) [Compound 193, 3-((4-(4-(2-(2-(5-((5-chloro-4-(1-(1-methylpiperidin-4-yl)-1H-pyrazol-4-yl)pyrimidin-2-yl)amino)pyridin-3-yl)-1-oxo-2,8-diazaspiro[4.5]decan-8-yl)-2-oxoethyl)piperidin-1-yl)phenyl)amino)piperidine-2,6-dione]",< 500 nM
14,"O=C(COc1cccc2c1CN(C1CCC(=O)NC1=O)C2=O)NCCCCCCCCCC(=O)Nc1cncc(Nc2ncc(Cl)c(-c3cccc(-c4ccccc4)c3)n2)c1 (stereo not shown) [Compound 66, N-(5-((4-([1,1′-biphenyl]-3-yl)-5-chloropyrimidin-2-yl)amino)pyridin-3-yl)-10-(2-((2-(2,6-dioxopiperidin-3-yl)-1-oxoisoindolin-4-yl)oxy)acetamido)decanamide]",< 500 nM
15,"O=C1CCC(Nc2ccc(C3CCN(CC(=O)N4CCC5(CC4)CCN(c4cncc(Nc6ncc(Cl)c(N7CCC[C@H](C(F)(F)F)C7)n6)c4)C5=O)CC3)cc2)C(=O)N1 (stereo partly drawn) [Compound 172, 3-((4-(1-(2-(2-(5-((5-chloro-4-((S)-3-(trifluoromethyl)piperidin-1-yl)pyrimidin-2-yl)amino)pyridin-3-yl)-1-oxo-2,8-diazaspiro[4.5]decan-8-yl)-2-oxoethyl)piperidin-4-yl)phenyl)amino)piperidine-2,6-dione]",< 500 nM
16,"Cn1c(=O)n(C2CCC(=O)NC2=O)c2ccc(C3CCN(CC(=O)N4CCC5(CC4)CCN(c4cncc(Nc6ncc(Cl)c(-c7cccc(C8CC8)c7)n6)c4)C5=O)CC3)cc21 (stereo not shown) [Compound 209, 3-(5-(1-(2-(2-(5-((5-chloro-4-(3-cyclopropylphenyl)pyrimidin-2-yl)amino)pyridin-3-yl)-1-oxo-2,8-diazaspiro[4.5]decan-8-yl)-2-oxoethyl)piperidin-4-yl)-3-methyl-2-oxo-2,3-dihydro-1H-benzo[d]imidazol-1-yl)piperidine-2,6-dione]",< 500 nM
17,"O=C1CCC(Nc2ccc(N3CCC(CC(=O)N4CCC5(CC4)CCN(c4cncc(Nc6ncc(Cl)c(-c7cccc(N8CCCCC8)c7)n6)c4)C5=O)CC3)cc2)C(=O)N1 (stereo not shown) [Compound 182, 3-((4-(4-(2-(2-(5-((5-chloro-4-(3-(piperidin-1-yl)phenyl)pyrimidin-2-yl)amino)pyridin-3-yl)-1-oxo-2,8-diazaspiro[4.5]decan-8-yl)-2-oxoethyl)piperidin-1-yl)phenyl)amino)piperidine-2,6-dione]",< 500 nM
18,"O=C1CCC(N2C(=O)c3ccc(OCCCCCCCCC(=O)N4CCC5(CC4)CCN(c4cncc(Nc6ncc(Cl)c(-c7cccc(-c8ccccc8)c7)n6)c4)C5=O)cc3C2=O)C(=O)N1 (stereo not shown) [Compound 72, 5-((9-(2-(5-((4-([1,1′-biphenyl]-3-yl)-5-chloropyrimidin-2-yl)amino)pyridin-3-yl)-1-oxo-2,8-diazaspiro[4.5]decan-8-yl)-9-oxononyl)oxy)-2-(2,6-dioxopiperidin-3-yl)isoindoline-1,3-dione]",< 500 nM
19,"O=C(COc1cccc2c1C(=O)N(C1CCC(=O)NC1=O)C2=O)NCCCCCCCCCC(=O)Nc1cncc(Nc2ncc(Cl)c(-c3cccc(-c4ccccc4)c3)n2)c1 (stereo not shown) [Compound 85, N-(5-((4-([1,1′-biphenyl]-3-yl)-5-chloropyrimidin-2-yl)amino)pyridin-3-yl)-10-(2-((2-(2,6-dioxopiperidin-3-yl)-1,3-dioxoisoindolin-4-yl)oxy)acetamido)decanamide]",500 to 1000 nM
